According to ChEMBL document CHEMBL1201862, “PubChem BioAssay data set” (2004):
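96-well plates; 48 h exposure; 5 concentrations. Endpoints by linear interpolation between flanking doses. Not reached: highest tested concentration assigned. Abbreviation: GI50, concentration required for 50% inhibition of growth.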 Activity calls are given as the source filed them. Cut-off read from the data, not from the text of the source: active = GI50 up to about 1.1 µM and inactive = higher.

What was measured:
Assay in all cases: NCI tumour cell line growth inhibition, 48 h
786-0 = test system: 786-0
A498 = test system: A498
A549 = test system: A549
ACHN = test system: ACHN
BT-549 = test system: BT-549
CAKI-1 = test system: CAKI-1
CCRF-CEM = test system: CCRF-CEM
COLO 205 = test system: COLO 205
DU-145 = test system: DU-145
EKVX = test system: EKVX
HCC 2998 = test system: HCC 2998
HCT-116 = test system: HCT-116
HCT-15 = test system: HCT-15
HL-60 = test system: HL-60
HOP-62 = test system: HOP-62
HOP-92 = test system: HOP-92
HT-29 = test system: HT-29
Hs-578T = test system: Hs-578T
K562 = test system: K562
KM12 = test system: KM12
LOX IMVI = test system: LOX IMVI
M14 = test system: M14
MCF7 = test system: MCF7
MDA-MB-231 = test system: MDA-MB-231
MDA-MB-435 = test system: MDA-MB-435
MOLT-4 = test system: MOLT-4
Malme-3M = test system: Malme-3M
NCI-H226 = test system: NCI-H226
NCI-H23 = test system: NCI-H23
NCI-H460 = test system: NCI-H460
NCI-H522 = test system: NCI-H522
NCI/ADR-RES = test system: NCI/ADR-RES
OVCAR-3 = test system: OVCAR-3
OVCAR-4 = test system: OVCAR-4
OVCAR-5 = test system: OVCAR-5
OVCAR-8 = test system: OVCAR-8
PC-3 = test system: PC-3
RPMI-8226 = test system: RPMI-8226
RXF 393 = test system: RXF 393
SF-268 = test system: SF-268
SF-295 = test system: SF-295
SF-539 = test system: SF-539
SK-MEL-28 = test system: SK-MEL-28
SK-MEL-2 = test system: SK-MEL-2
SK-MEL-5 = test system: SK-MEL-5
SK-OV-3 = test system: SK-OV-3
SN12C = test system: SN12C
SNB-19 = test system: SNB-19
SNB-75 = test system: SNB-75
SR = test system: SR
SW-620 = test system: SW-620
T47D = test system: T47D
TK-10 = test system: TK-10
U-251 = test system: U-251
UACC-257 = test system: UACC-257
UACC-62 = test system: UACC-62
UO-31 = test system: UO-31
IGROV-1 = test system: IGROV-1
MDA-N = test system: MDA-N

Question: O=C(c1ccc2ccccc2c1)N(Cc1cccnc1)C(=S)N(Cc1cccnc1)C(=O)c1ccc2ccccc2c1 was tested. Which GI50 (786-0) did it give?
Answer: 25.2 µM (inactive)

Question: What about the GI50 (A498) of the same compound?
Answer: 32.9 µM (inactive)

Question: What about the GI50 (A549) of the same compound?
Answer: 39.3 µM (inactive)

Question: And the GI50 (ACHN)?
Answer: 32.1 µM (inactive)

Question: What about the GI50 (BT-549) of the same compound?
Answer: 17 µM (inactive)

Question: And the GI50 (CAKI-1)?
Answer: 22.2 µM (inactive)

Question: And the GI50 (CCRF-CEM)?
Answer: 60.7 µM (inactive)

Question: And the GI50 (COLO 205)?
Answer: 29.2 µM (inactive)

Question: What about the GI50 (DU-145) of the same compound?
Answer: 27 µM (inactive)

Question: And the GI50 (EKVX)?
Answer: 22.8 µM (inactive)

Question: And the GI50 (HCC 2998)?
Answer: 16.5 µM (inactive)

Question: What about the GI50 (HCT-116) of the same compound?
Answer: 35.7 µM (inactive)

Question: What about the GI50 (HCT-15) of the same compound?
Answer: 32.1 µM

Question: And the GI50 (HL-60)?
Answer: 40.8 µM (inactive)

Question: What about the GI50 (HOP-62) of the same compound?
Answer: 23.2 µM (inactive)

Question: What about the GI50 (HOP-92) of the same compound?
Answer: 26.5 µM (inactive)

Question: And the GI50 (HT-29)?
Answer: 30 µM (inactive)

Question: And the GI50 (Hs-578T)?
Answer: 49.9 µM (inactive)

Question: And the GI50 (K562)?
Answer: 41.6 µM (inactive)

Question: What about the GI50 (KM12) of the same compound?
Answer: 22 µM (inactive)

Question: What about the GI50 (LOX IMVI) of the same compound?
Answer: 19 µM (inactive)

Question: And the GI50 (M14)?
Answer: 20.8 µM (inactive)

Question: What about the GI50 (MCF7) of the same compound?
Answer: 32.7 µM (inactive)

Question: And the GI50 (MDA-MB-231)?
Answer: 23.2 µM (inactive)

Question: And the GI50 (MDA-MB-435)?
Answer: 34 µM (inactive)

Question: What about the GI50 (MOLT-4) of the same compound?
Answer: 41.3 µM (inactive)

Question: What about the GI50 (Malme-3M) of the same compound?
Answer: > 100 µM (inactive)

Question: And the GI50 (NCI-H226)?
Answer: 61.2 µM (inactive)

Question: And the GI50 (NCI-H23)?
Answer: 23.1 µM (inactive)

Question: And the GI50 (NCI-H460)?
Answer: 30.6 µM (inactive)

Question: What about the GI50 (NCI-H522) of the same compound?
Answer: 37.4 µM (inactive)

Question: And the GI50 (NCI/ADR-RES)?
Answer: 30 µM (inactive)

Question: And the GI50 (OVCAR-3)?
Answer: 20.5 µM (inactive)

Question: And the GI50 (OVCAR-4)?
Answer: 20.7 µM (inactive)

Question: What about the GI50 (OVCAR-5) of the same compound?
Answer: 55 µM (inactive)

Question: And the GI50 (OVCAR-8)?
Answer: 25.7 µM (inactive)

Question: And the GI50 (PC-3)?
Answer: 28.3 µM (inactive)

Question: What about the GI50 (RPMI-8226) of the same compound?
Answer: 32.9 µM (inactive)

Question: And the GI50 (RXF 393)?
Answer: 19.3 µM (inactive)

Question: What about the GI50 (SF-268) of the same compound?
Answer: 29.2 µM (inactive)

Question: What about the GI50 (SF-295) of the same compound?
Answer: 34.7 µM (inactive)

Question: What about the GI50 (SF-539) of the same compound?
Answer: 40 µM (inactive)

Question: And the GI50 (SK-MEL-28)?
Answer: 36.9 µM (inactive)

Question: What about the GI50 (SK-MEL-2) of the same compound?
Answer: 25.6 µM (inactive)

Question: What about the GI50 (SK-MEL-5) of the same compound?
Answer: 20.6 µM (inactive)

Question: And the GI50 (SK-OV-3)?
Answer: 46.3 µM (inactive)

Question: And the GI50 (SN12C)?
Answer: 64 µM (inactive)

Question: And the GI50 (SNB-19)?
Answer: 37.2 µM (inactive)

Question: And the GI50 (SNB-75)?
Answer: 24.9 µM (inactive)

Question: What about the GI50 (SR) of the same compound?
Answer: 45.2 µM (inactive)

Question: What about the GI50 (SW-620) of the same compound?
Answer: 49.5 µM (inactive)

Question: And the GI50 (T47D)?
Answer: 26.3 µM (inactive)

Question: What about the GI50 (TK-10) of the same compound?
Answer: 31.1 µM (inactive)

Question: What about the GI50 (U-251) of the same compound?
Answer: 19 µM (inactive)

Question: And the GI50 (UACC-257)?
Answer: 19.5 µM (inactive)

Question: And the GI50 (UACC-62)?
Answer: 26 µM (inactive)

Question: What about the GI50 (UO-31) of the same compound?
Answer: 28.6 µM (inactive)

Question: What does the source list for CCCCCCCCCCCCCCCCOCC(CC(F)(F)P(=O)(O)O)OC(C)=O (stereo unspecified)?
Answer: GI50 (786-0): > 50 µM (inactive); GI50 (A498): > 50 µM (inactive); GI50 (A549): > 50 µM (inactive); GI50 (ACHN): > 50 µM (inactive); GI50 (BT-549): > 50 µM (inactive); GI50 (CAKI-1): > 50 µM (inactive); GI50 (COLO 205): > 50 µM (inactive); GI50 (DU-145): > 50 µM (inactive); GI50 (EKVX): > 50 µM (inactive); GI50 (HCC 2998): > 50 µM (inactive); GI50 (HCT-116): > 50 µM (inactive); GI50 (HCT-15): > 50 µM; GI50 (HOP-62): 15.1 µM (inactive); GI50 (HOP-92): > 50 µM (inactive); GI50 (HT-29): > 50 µM (inactive); GI50 (IGROV-1): > 50 µM (inactive); GI50 (K562): > 50 µM (inactive); GI50 (KM12): > 50 µM (inactive); GI50 (M14): > 50 µM (inactive); GI50 (MCF7): > 50 µM (inactive); GI50 (MDA-MB-231): > 50 µM (inactive); GI50 (MDA-MB-435): > 50 µM (inactive); GI50 (MDA-N): > 50 µM (inactive); GI50 (MOLT-4): > 50 µM (inactive); GI50 (Malme-3M): > 50 µM (inactive); GI50 (NCI-H226): > 50 µM (inactive); GI50 (NCI-H23): > 50 µM (inactive); GI50 (NCI-H460): > 50 µM (inactive); GI50 (NCI-H522): > 50 µM (inactive); GI50 (NCI/ADR-RES): > 50 µM (inactive); GI50 (OVCAR-3): > 50 µM (inactive); GI50 (OVCAR-5): > 50 µM (inactive); GI50 (PC-3): > 50 µM (inactive); GI50 (RPMI-8226): > 50 µM (inactive); GI50 (SF-268): > 50 µM (inactive); GI50 (SF-295): > 50 µM (inactive); GI50 (SK-MEL-28): > 50 µM (inactive); GI50 (SK-MEL-2): > 50 µM (inactive); GI50 (SK-MEL-5): > 50 µM (inactive); GI50 (SK-OV-3): > 50 µM (inactive); GI50 (SN12C): > 50 µM (inactive); GI50 (SNB-19): > 50 µM (inactive); GI50 (SNB-75): > 50 µM (inactive); GI50 (SW-620): > 50 µM (inactive); GI50 (TK-10): > 50 µM (inactive); GI50 (U-251): > 50 µM (inactive); GI50 (UACC-257): > 50 µM (inactive); GI50 (UACC-62): > 50 µM (inactive); GI50 (UO-31): > 50 µM (inactive)

Question: Which results are given for NC(=O)c1nnn(-c2ccccc2)c1O?
Answer: GI50 (786-0): > 100 µM (inactive); GI50 (A498): > 100 µM (inactive); GI50 (A549): > 100 µM (inactive); GI50 (ACHN): > 100 µM (inactive); GI50 (BT-549): > 100 µM (inactive); GI50 (CAKI-1): > 100 µM (inactive); GI50 (CCRF-CEM): > 100 µM (inactive); GI50 (COLO 205): > 100 µM (inactive); GI50 (DU-145): > 100 µM (inactive); GI50 (EKVX): > 100 µM (inactive); GI50 (HCC 2998): > 100 µM (inactive); GI50 (HCT-116): > 100 µM (inactive); GI50 (HCT-15): > 100 µM; GI50 (HL-60): 0.1 µM (active); GI50 (HOP-62): > 100 µM (inactive); GI50 (HT-29): > 100 µM (inactive); GI50 (Hs-578T): > 100 µM (inactive); GI50 (IGROV-1): > 100 µM (inactive); GI50 (K562): > 100 µM (inactive); GI50 (KM12): > 100 µM (inactive); GI50 (LOX IMVI): > 100 µM (inactive); GI50 (M14): > 100 µM (inactive); GI50 (MCF7): > 100 µM (inactive); GI50 (MDA-MB-231): > 100 µM (inactive); GI50 (MDA-MB-435): > 100 µM (inactive); GI50 (MOLT-4): > 100 µM (inactive); GI50 (Malme-3M): > 100 µM (inactive); GI50 (NCI-H226): > 100 µM (inactive); GI50 (NCI-H23): > 100 µM (inactive); GI50 (NCI-H460): > 100 µM (inactive); GI50 (NCI-H522): > 100 µM (inactive); GI50 (NCI/ADR-RES): > 100 µM (inactive); GI50 (OVCAR-3): > 100 µM (inactive); GI50 (OVCAR-5): > 100 µM (inactive); GI50 (OVCAR-8): > 100 µM (inactive); GI50 (PC-3): > 100 µM (inactive); GI50 (RPMI-8226): > 100 µM (inactive); GI50 (RXF 393): > 100 µM (inactive); GI50 (SF-268): > 100 µM (inactive); GI50 (SF-295): > 100 µM (inactive); GI50 (SF-539): > 100 µM (inactive); GI50 (SK-MEL-28): > 100 µM (inactive); GI50 (SK-MEL-2): > 100 µM (inactive); GI50 (SK-MEL-5): > 100 µM (inactive); GI50 (SK-OV-3): > 100 µM (inactive); GI50 (SN12C): > 100 µM (inactive); GI50 (SNB-19): > 100 µM (inactive); GI50 (SNB-75): > 100 µM (inactive); GI50 (SW-620): > 100 µM (inactive); GI50 (T47D): > 100 µM (inactive); GI50 (TK-10): > 100 µM (inactive); GI50 (U-251): > 100 µM (inactive); GI50 (UACC-257): > 100 µM (inactive); GI50 (UACC-62): > 100 µM (inactive); GI50 (UO-31): > 100 µM (inactive)
